In one assay the test system is certain cytokines. Conditions: U.S. Pat. No. 4,965,271 and U.S. Pat. No. 5,096,906; cited from earlier work.
Another assay concerns PAPH. Kind of assay: Inhibition of PAPH. Conditions: specific activation pathway not involving PI; substrates with 1,2-diunsaturated and 1-alkyl,2-unsaturated subspecies. The class given is biochemical. As for the experimental part: One in vitro assay measures inhibition of the relevant enzymes lysophosphatidic acid acyltransferase (LPAAT) and phosphatidic acid phosphoryl hydrolase (PAPH). The assay involves incubating of target cells with a primary stimulus (e.g., a variety of cytokines, growth factors, oncogene products, putative therapeutic agents, irradiation, viral infection, toxins, bacterial infection and the products thereof, and any stimulus which, if not counteracted, has a deleterious effect on the target cell) in the presence or absence of an inventive compound at varying dosage levels. […] It is important to note that the assay method permits discrimination between various forms of PA and DAG so that those relevant to the pathway affected by the (R) or (S) compounds of the invention can be measured directly. […] Thus, the relevant unsaturated (non-arachidonic) PA and DAG subspecies may be detected. […]

Assay [1] relates to tumor necrosis factor (TNF). As to conditions: PTX recipients; cited from earlier work.
The test system of assay [2] is polymorphonuclear leukocytes. Conditions: in response to a stimulator of chemotaxis; U.S. Pat. No. 4,636,507; cited from earlier work.

Take `CC(=O)CCCCn1c(=O)c2c(ncn2C)n(C)c1=O` [PTX, 1-(5-oxohexyl)-3,7-dimethylxanthine]: the “effect on activity of certain cytokines to affect chemotaxis” value in the assay with certain cytokines is given as “inhibit activity of certain cytokines to affect chemotaxis”. The “effect on PAPH” value with PAPH is “blocks PAPH in a specific activation pathway”. Further, the “TNF levels in normal volunteers” value in assay [1] is listed as “higher among PTX recipients”. Moreover, the “effect on chemotaxis in polymorphonuclear leukocytes” value in assay [2] is “stimulate chemotaxis”.
